Assay [1] deals with X-box-binding protein 1 (Homo sapiens, UniProt P17861). In kind it is functional, Cricetulus griseus.
Assay [2] concerns the target Acyl-homoserine lactone acylase PvdQ (Pseudomonas aeruginosa (strain LESB58), UniProt Q9I194). The assay is described as follows: P. aeruginosa PvdQ acylase inhibitors, dose response, biochemical, fluorescence, plate reader and imaging, cherry-picks (AID 493231).
In assay [3] the target is T1, Estrogen receptor (Homo sapiens, UniProt P03372).
T1 sequence (P03372 whole entry): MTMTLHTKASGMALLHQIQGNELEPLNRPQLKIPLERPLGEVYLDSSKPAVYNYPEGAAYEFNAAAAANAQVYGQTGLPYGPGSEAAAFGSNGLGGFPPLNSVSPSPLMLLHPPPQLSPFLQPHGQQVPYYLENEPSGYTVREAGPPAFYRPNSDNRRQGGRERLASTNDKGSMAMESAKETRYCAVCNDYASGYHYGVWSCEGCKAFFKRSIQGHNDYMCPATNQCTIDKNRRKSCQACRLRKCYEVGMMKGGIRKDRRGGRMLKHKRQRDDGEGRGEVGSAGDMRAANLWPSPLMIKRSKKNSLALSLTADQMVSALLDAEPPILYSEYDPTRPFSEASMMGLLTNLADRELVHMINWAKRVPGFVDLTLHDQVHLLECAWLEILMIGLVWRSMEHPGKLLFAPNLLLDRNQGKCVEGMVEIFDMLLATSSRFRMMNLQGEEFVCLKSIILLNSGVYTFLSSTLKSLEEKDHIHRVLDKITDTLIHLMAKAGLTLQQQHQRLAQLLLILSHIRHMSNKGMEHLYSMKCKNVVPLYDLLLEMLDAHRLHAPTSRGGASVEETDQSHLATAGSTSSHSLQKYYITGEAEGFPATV
The assay is described as follows: potentiators of ERα–SRC-1 coactivator binding, dose response, biochemical, TR-FRET, ERα LBD (AID 737). In general terms: In TR-FRET formats the signal depends on donor and acceptor labels being close together.

Assay [4] deals with Nucleotide-binding oligomerization domain-containing protein 2 (Homo sapiens, UniProt Q9HC29). The assay is described as follows: PubChem AID 2334. The format is functional.
Assay [5] has as its target Tumor necrosis factor (Homo sapiens, UniProt P01375). The assay is described as follows: TNFa-triggered NF-kB activation inhibitors, SAR follow-up, cell-based, revised (AID 2337). In kind it is functional.
Assay [6] can be described thus: A Cell Based Secondary Assay To Explore Cytotoxicity of Compounds that Sensitize Mycobacterium Tuberculosis to Beta-Lactam Antibiotics. In kind it is functional.
Assay [7] deals with HEK293. The assay is described as follows: cells. The settings on record: Homo sapiens.
Assay [8] deals with T2, Nucleotide-binding oligomerization domain-containing protein 1 (Homo sapiens, UniProt Q9Y239).
T2 sequence (Q9Y239 whole entry): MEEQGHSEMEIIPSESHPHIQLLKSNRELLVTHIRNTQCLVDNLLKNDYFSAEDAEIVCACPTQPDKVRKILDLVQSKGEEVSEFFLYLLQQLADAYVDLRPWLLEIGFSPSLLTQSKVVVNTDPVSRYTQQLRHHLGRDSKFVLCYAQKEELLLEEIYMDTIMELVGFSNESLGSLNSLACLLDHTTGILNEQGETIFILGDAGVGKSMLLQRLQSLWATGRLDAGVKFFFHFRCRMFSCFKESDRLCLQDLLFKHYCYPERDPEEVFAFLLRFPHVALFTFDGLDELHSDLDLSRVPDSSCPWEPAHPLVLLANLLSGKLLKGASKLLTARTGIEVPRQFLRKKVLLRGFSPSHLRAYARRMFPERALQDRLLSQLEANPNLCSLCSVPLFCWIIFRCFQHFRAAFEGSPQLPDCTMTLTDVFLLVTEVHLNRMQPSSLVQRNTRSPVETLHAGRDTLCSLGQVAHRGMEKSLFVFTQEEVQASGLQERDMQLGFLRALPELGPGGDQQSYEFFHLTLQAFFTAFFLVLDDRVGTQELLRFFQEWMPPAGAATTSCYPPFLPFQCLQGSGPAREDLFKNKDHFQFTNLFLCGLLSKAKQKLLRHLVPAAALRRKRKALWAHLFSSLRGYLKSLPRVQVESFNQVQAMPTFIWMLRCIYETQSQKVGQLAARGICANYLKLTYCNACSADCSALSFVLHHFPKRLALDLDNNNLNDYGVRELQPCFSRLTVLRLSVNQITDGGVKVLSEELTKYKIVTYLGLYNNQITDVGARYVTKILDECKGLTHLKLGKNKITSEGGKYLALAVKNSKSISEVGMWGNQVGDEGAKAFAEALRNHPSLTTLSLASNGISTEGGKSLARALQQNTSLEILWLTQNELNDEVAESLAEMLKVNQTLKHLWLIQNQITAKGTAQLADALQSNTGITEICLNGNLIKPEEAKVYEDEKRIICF
The assay is described as follows: NOD1 signaling inhibitors, SAR follow-up, revised (AID 2333). In kind it is functional.

Assay [9] addresses Scavenger receptor class B member 1 (Mus musculus, UniProt Q61009). The assay is described as follows: inhibitors of SR-BI mediated HDL lipid uptake, dose response, ldlA[mSR-BI] cells, fluorescence, cherry pick (AID 493194).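 Note: cellular uptake of fluorescent DiI-labeled HDL measured as cell fluorescence.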 In kind it is functional, cell-based.
For assay [10], the target named is T1, Estrogen receptor.
The target of assay [11] is Luciferin 4-monooxygenase (Photinus pyralis, UniProt P08659). The assay is described as follows: In vitro luciferase assay using purified luciferase. [Related pubchem assays: 1299, 1270, 1295, 1375, 1287, 1281, 1293, 1291, 1289, 1280, 465, 1364, 1282, 1372, 1365, 1370, 1367, 1366, 1266, 1373, 1292, 1290, 1302, 1371, 1283, 1271, 1294, 1374, 1368, 1369 ].
Assay [12] relates to HEK293. The assay is described as follows: PMA/Ionomycin induced NF-kB luciferase assay in 293- NF-kB-Luc stable cells. [Related pubchem assays: 1299, 1270, 1295, 1375, 1287, 1281, 1293, 1291, 1289, 1280, 465, 1364, 1282, 1372, 1365, 1370, 1367, 1366, 1269, 1373, 1292, 1290, 1302, 1371, 1283, 1271, 1294, 1374, 1368, 1369 ]. In kind it is functional, cell-based. The settings on record: Homo sapiens.

A short description of assay [13]: Luminescence Cell-Based Dose Response HTS to Identify Inhibitors of 5'UTR Stem-Loop Driven Prion Protein mRNA Translation in H4 Neuroglioblastoma Cells. [Related pubchem assays: 1827 (Project Summary), 1813 (Primary HTS)]. In kind it is functional.
The nature of assay [14]: cytotoxicity in HEK-293T cells, dose response, cytotoxicity control for TCR NF-kB inhibitor project, luminescence, T-cell screen hits (AID 489026).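 Note: cells exposed to compound about 14 hours before the viability readout.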 The format is functional, cell-based.
Assay [15] can be described thus: Luminescence-based counterscreen assay for KLF5 inhibitors: dose response cell-based high throughput screening assay to identify cytotoxic compounds using the IEC-6 intestinal epithelial cell line. [Related pubchem assays: 1700 (Primary screen.), 1834 (Confirmation screen.), 1858 (Summary AID.), 1905 (Counterscreen.)]. The format is functional.
Assay [16] in a line: inhibitors of firefly luciferase expression or activity, dose response, H4 neuroglioma cells, luminescence (AID 1990). The format is functional, cell-based.
For assay [17], the system named is HEK293. The assay is described as follows: Cytotoxicity assay in HEK293 cells. [Related pubchem assays (depositor defined):AID1266, AID1269, AID1270, AID1271, AID1280, AID1281, AID1282, AID1283, AID1287, AID1289, AID1290, AID1291, AID1292, AID1293, AID1294, AID1295, AID1299, AID1302, AID1364, AID1365, AID1366, AID1367, AID1369, AID1370, AID1371, AID1372, AID1373, AID1374, AID1375, AID1384 …. In kind it is functional, cell-based. The settings on record: Homo sapiens.

The target of assay [18] is T3, Heat shock factor protein 1 (Mus musculus, UniProt P38532).
T3 sequence (P38532 whole entry): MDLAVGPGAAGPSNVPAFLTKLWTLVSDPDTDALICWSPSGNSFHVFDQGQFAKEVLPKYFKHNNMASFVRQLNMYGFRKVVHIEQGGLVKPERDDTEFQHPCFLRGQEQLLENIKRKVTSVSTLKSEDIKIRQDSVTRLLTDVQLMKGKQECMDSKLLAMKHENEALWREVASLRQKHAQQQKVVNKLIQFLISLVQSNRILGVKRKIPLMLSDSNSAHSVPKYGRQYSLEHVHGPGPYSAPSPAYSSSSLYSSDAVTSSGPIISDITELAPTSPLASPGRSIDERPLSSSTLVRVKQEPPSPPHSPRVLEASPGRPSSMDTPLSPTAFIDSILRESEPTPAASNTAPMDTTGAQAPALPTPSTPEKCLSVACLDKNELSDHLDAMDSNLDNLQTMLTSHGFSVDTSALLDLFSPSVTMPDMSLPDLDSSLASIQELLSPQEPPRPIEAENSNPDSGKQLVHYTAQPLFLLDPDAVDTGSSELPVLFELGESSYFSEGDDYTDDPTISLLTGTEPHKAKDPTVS
The assay is described as follows: inhibition of MG132-induced HSE-luciferase signal, confirmation, cell-based, NIH3T3, luminescence, dose retest (AID 2382).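 Note: NIH3T3 fibroblasts with HSF1-driven luciferase reporter stressed by proteasome inhibitor MG132; luminescence from HSF1-driven luciferase expression after 8 hours of MG132 stress.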 In kind it is functional.

Assay [19] concerns the target T4, Microphthalmia-associated transcription factor (Homo sapiens, UniProt O75030).
T4 sequence (O75030 whole entry): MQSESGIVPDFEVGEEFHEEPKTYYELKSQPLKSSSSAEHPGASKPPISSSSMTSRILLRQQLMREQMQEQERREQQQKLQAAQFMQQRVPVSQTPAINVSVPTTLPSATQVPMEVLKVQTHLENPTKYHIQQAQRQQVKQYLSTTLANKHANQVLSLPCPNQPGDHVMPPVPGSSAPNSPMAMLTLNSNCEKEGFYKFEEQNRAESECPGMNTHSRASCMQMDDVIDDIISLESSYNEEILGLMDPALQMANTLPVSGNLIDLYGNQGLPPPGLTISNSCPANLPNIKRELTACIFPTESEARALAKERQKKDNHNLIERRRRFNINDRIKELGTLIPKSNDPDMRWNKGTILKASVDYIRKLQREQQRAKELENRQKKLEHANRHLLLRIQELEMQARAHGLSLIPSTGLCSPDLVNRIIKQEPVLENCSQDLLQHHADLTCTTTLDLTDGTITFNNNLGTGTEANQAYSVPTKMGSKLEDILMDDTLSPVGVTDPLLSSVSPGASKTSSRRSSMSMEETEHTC
The assay is described as follows: TRPM1 promoter luciferase signal decrease, dose response, MITF inhibitor project, cell-based, SK-MEL-5, cherry-picked, set 3 (AID 493073).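 Note: SK-MEL-5 melanoma cells with luciferase driven by the MITF target TRPM1 promoter.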 The format is functional.

In assay [20] the target is Voltage-gated N-type calcium channel alpha-1B subunit/Amyloid beta A4 precursor protein-binding family A member 1 (Homo sapiens, UniProt Q00975+Q02410). The assay is described as follows: disruptors of Mint-PDZ/N-type channel peptide interaction – biochemical, HTRF, set 2, SAR follow-up (AID 434980). In kind it is functional.
For assay [21], the target named is Collagenase 3 (Homo sapiens, UniProt P45452). The assay is described as follows: MMP13 inhibition and MMP selectivity, late-stage follow-up, selectivity assay for MMP13 inhibitor project, biochemical, probe development, late stage results, panel member MMP-13 [IC50 Assay] (AID 2067).
Assay [22] addresses Neutrophil collagenase (Homo sapiens, UniProt P22894). The assay is described as follows: MMP13 inhibition and MMP selectivity, late-stage follow-up, selectivity assay for MMP13 inhibitor project, biochemical, probe development, late stage results, panel member MMP-8 [IC50 Assay] (AID 2067).

Active and inactive are the calls of the source.
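Throughout, for Absolute IC50 (XBP1): confirmatory dose-response counter-screen serving a CHOP assay.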

Luciferin 4-monooxygenase, sequence (P08659 whole entry): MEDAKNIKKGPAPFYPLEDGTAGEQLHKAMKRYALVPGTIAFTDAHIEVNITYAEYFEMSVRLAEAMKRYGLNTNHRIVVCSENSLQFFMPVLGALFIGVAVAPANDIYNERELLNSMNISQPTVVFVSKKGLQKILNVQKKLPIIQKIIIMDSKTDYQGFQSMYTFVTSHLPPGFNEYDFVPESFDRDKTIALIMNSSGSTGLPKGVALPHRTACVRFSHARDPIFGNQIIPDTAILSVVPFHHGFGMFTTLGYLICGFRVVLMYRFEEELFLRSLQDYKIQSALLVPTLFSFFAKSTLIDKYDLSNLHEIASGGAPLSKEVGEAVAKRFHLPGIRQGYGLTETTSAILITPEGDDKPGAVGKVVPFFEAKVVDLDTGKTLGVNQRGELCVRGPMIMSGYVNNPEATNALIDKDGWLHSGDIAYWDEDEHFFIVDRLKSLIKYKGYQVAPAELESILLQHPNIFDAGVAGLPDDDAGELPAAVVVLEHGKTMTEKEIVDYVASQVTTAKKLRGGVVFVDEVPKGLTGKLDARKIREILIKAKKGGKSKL
Tumor necrosis factor, sequence (P01375 whole entry): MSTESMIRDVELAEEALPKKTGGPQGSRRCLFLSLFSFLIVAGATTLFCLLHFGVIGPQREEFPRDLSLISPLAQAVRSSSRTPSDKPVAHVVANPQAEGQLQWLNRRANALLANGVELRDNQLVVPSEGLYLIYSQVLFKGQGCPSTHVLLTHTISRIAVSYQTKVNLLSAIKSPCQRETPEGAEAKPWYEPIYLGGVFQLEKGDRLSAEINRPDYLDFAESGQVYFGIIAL
Scavenger receptor class B member 1, sequence (Q61009 whole entry): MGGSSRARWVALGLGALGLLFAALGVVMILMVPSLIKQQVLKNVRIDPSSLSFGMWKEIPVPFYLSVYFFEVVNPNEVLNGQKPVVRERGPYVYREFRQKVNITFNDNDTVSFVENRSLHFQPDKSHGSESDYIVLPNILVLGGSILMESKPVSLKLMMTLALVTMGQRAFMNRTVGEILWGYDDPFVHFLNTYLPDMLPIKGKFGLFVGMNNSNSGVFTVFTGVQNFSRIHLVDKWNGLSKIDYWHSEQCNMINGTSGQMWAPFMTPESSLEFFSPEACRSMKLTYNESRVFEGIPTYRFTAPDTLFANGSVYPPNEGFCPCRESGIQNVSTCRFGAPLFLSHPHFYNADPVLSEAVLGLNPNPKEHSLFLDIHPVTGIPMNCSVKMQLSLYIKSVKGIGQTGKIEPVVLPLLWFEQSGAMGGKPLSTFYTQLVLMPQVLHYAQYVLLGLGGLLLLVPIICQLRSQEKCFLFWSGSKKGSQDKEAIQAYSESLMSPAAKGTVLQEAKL
Voltage-gated N-type calcium channel alpha-1B subunit/Amyloid beta A4 precursor protein-binding family A member 1, sequence (Q00975 whole entry): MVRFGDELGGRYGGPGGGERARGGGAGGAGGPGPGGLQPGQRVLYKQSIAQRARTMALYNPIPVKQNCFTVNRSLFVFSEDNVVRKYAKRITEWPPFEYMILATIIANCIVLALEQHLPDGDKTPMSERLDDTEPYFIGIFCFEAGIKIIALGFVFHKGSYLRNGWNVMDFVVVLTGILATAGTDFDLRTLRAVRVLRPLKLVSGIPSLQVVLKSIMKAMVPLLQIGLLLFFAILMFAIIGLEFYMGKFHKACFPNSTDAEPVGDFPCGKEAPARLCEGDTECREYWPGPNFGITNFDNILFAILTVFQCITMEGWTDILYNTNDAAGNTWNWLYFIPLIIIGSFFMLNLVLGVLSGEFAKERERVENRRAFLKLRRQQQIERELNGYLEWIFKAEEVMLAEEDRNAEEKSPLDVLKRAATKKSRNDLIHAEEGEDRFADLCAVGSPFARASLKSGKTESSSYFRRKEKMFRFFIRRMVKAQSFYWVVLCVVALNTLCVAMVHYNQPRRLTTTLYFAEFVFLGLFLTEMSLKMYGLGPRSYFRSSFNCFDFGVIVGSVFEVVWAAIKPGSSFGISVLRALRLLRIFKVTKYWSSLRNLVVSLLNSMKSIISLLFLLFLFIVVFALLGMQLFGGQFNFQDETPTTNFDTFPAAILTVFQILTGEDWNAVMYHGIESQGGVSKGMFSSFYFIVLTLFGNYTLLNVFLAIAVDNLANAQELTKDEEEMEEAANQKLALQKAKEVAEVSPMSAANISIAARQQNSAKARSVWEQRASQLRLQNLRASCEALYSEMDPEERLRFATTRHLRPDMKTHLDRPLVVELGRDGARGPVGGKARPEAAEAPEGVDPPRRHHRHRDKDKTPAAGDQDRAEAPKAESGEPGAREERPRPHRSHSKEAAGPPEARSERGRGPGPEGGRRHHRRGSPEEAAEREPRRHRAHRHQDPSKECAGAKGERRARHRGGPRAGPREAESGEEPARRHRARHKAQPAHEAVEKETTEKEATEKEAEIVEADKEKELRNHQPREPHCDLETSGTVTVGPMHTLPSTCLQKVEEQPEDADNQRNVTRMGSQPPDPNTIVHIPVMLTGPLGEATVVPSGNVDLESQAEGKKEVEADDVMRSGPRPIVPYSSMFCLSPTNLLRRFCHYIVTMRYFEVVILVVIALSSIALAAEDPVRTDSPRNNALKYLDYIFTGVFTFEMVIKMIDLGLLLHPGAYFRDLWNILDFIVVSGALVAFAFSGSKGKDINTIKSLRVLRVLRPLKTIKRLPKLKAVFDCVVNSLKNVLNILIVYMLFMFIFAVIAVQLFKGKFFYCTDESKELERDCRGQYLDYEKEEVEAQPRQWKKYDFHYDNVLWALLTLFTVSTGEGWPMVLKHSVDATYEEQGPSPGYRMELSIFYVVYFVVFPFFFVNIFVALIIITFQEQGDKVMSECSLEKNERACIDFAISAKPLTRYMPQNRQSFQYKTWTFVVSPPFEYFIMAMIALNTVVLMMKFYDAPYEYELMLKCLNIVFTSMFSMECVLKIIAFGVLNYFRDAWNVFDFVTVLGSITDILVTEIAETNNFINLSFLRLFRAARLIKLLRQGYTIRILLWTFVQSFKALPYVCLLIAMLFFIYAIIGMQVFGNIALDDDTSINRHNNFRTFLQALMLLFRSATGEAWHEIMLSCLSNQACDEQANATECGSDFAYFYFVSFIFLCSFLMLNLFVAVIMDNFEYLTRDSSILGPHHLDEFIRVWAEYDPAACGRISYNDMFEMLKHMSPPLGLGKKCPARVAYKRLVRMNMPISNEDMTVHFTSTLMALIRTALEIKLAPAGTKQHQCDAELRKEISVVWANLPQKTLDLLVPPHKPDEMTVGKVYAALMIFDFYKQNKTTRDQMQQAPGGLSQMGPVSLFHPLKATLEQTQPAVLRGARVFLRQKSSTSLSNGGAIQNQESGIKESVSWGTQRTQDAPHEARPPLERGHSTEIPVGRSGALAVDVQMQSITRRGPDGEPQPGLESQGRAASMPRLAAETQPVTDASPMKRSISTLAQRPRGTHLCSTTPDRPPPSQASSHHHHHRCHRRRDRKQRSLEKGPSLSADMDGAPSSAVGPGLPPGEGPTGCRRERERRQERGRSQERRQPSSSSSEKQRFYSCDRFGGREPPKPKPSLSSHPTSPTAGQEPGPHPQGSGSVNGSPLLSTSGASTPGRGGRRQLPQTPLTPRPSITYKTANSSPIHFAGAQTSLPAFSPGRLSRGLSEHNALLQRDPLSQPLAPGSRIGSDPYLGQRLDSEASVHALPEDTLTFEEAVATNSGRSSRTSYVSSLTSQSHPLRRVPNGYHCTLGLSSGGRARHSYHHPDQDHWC
Voltage-gated N-type calcium channel alpha-1B subunit/Amyloid beta A4 precursor protein-binding family A member 1, sequence (Q02410 whole entry): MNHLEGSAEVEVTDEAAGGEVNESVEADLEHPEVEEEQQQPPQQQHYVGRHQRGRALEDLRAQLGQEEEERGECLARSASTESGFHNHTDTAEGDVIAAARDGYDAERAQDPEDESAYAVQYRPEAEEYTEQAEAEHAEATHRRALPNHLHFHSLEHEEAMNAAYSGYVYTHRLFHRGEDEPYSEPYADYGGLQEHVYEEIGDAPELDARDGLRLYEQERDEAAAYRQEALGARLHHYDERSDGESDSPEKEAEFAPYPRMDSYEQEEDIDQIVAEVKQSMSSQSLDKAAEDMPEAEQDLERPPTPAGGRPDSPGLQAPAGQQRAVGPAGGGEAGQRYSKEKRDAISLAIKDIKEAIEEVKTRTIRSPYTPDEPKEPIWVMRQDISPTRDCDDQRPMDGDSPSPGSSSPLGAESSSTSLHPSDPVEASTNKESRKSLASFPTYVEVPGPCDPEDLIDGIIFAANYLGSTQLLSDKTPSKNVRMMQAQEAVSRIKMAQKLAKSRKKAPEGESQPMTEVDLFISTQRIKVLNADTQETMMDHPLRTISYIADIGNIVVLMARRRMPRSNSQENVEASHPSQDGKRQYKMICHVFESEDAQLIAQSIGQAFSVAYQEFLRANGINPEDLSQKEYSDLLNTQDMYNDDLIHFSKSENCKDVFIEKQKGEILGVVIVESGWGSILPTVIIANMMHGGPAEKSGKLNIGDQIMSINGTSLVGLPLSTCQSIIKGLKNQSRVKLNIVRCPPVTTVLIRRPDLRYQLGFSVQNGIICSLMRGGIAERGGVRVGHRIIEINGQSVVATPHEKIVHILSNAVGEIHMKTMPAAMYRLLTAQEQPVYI
X-box-binding protein 1, sequence (P17861 whole entry): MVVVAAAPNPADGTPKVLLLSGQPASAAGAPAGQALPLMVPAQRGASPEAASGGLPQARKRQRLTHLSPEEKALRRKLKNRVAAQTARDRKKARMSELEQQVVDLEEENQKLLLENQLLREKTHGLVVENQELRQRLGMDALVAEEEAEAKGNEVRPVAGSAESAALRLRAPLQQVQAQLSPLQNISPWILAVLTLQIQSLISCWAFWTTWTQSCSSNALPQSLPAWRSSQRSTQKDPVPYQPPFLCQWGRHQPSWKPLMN

Consider `CCC(C)(C)NC(=O)C(c1cccn1C)N(C(=O)Cn1nnc2ccccc21)c1ccc(F)cc1` (configuration not stated), for which the “Absolute IC50 (XBP1)” value in assay [1] is 10 µM.
For `Cc1ccc([S+]([O-])c2ccc(C)cc2)cc1`, the AC50 in assay [2] was 2.65 µM (active).
As to `Cc1ccc(Cn2c(NC(=O)c3ccco3)nc3ccccc32)cc1`, the EC50 in assay [3] is 14.6 µM (active). The IC50 in assay [4], in assay [5], in assay [7] and in [8] was > 20 µM (inactive) in each case. For the same molecule, the CC50 in assay [6] was 10.1 µM (active).
For the molecule `CCOC(=O)c1c(Nc2nc(C)c(C(=O)NC)s2)sc(C)c1C`, the AC50 in assay [9] is 11.6 µM (active). For the same molecule, in [10], the IC50 is 42.3 µM (not active).
For the molecule `COC(=O)C1=C(CN2CCCc3ccccc32)NC(=O)NC1c1ccc(F)cc1` (configuration not stated), the EC50 in assay [11] was > 8 µM (not active); in assay [12], 9.82 µM (not active); in assay [13], 12.4 µM (active); in assay [16] it was 6.69 µM (inconclusive); in assay [17] it was > 8 µM (inactive); in assay [18] it was 8.88 µM (active). Moreover, the values for the IC50 in assay [14] and in assay [15] were > 80 µM (inactive) and > 39.8 µM (not active), respectively. Besides, in assay [19], the AC50 was 2.16 µM (active).
On to `CN(CCc1ccccc1)C(=O)c1cc(-c2ccco2)nc2ccccc12`, for which the IC50 in [20] is > 56.8 µM (inactive).
For `O=C(O)c1ccc(CSc2nc3c(c(=O)[nH]2)CCC3)cc1`, the IC50 in assay [21] and in assay [22] was > 39.8 µM (inactive) each time.

The AC50 is the midpoint of the concentration-response curve, whichever way the signal moves. As usually defined, the EC50 is the concentration that produces a half-maximal response. The term IC50 denotes the concentration that inhibits the measured activity by half. One may read the CC50 as the concentration giving 50% cytotoxicity.
